From patent EP4667458A1 (Kanaph Therapeutics Inc., priority 2023, dated 2024)
Read-outs that look alike come from different tables or passages of the source.

How the values were obtained:
SOS1 = target: T1, SOS1 (Homo sapiens, UniProt Q07889); test: SOS-catalyzed nucleotide exchange assay (HTRF, SOS1-mediated GTP loading of KRAS G12D); format: biochemical; conditions: GST-KRAS G12D, HIS-SOS1cat, EDA-GTP-DY-647P1; compound 128 pM to 10 µM; read-out: SOS-catalyzed nucleotide exchange assay (IC50 range, Grade)
T1 construct: adding equal amounts of HIS-SOS1cat (160 nM; Cytoskeleton, US); His; purchased Cytoskeleton, US
T1 sequence (Q07889 564-1049 limits assumed): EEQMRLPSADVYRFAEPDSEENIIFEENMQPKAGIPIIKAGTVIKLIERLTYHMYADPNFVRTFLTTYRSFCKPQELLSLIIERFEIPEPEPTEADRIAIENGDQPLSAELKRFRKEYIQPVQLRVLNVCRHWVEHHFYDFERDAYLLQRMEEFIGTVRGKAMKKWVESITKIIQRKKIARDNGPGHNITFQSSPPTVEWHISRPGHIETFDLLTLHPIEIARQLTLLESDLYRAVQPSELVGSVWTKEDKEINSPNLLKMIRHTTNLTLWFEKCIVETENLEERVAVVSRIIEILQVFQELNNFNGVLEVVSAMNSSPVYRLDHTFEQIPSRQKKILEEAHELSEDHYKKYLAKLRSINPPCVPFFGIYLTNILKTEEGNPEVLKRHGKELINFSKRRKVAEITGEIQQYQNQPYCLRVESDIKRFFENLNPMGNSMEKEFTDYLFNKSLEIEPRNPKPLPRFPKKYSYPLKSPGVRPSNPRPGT
In short: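 SOS1cat (HIS-tagged) preincubated 10 min at room temperature with compound (128 pM-10 µM), then GST-KRAS G12D with anti-GST terbium added; GTP loading tracked as HTRF with a DY-647P1 GTP analogue after 30 min, buffer HEPES pH 7.4. GEF-free wells for normalization; IC50 derived.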

KRAS^G12C::SOS1 = target: T2, KRAS^G12C::SOS1 (Homo sapiens, UniProt Q07889); test: KRAS G12C::SOS1 protein-protein interaction (PPI) inhibition assay (HTRF binding kit)
T2 sequence (Q07889 1-1333): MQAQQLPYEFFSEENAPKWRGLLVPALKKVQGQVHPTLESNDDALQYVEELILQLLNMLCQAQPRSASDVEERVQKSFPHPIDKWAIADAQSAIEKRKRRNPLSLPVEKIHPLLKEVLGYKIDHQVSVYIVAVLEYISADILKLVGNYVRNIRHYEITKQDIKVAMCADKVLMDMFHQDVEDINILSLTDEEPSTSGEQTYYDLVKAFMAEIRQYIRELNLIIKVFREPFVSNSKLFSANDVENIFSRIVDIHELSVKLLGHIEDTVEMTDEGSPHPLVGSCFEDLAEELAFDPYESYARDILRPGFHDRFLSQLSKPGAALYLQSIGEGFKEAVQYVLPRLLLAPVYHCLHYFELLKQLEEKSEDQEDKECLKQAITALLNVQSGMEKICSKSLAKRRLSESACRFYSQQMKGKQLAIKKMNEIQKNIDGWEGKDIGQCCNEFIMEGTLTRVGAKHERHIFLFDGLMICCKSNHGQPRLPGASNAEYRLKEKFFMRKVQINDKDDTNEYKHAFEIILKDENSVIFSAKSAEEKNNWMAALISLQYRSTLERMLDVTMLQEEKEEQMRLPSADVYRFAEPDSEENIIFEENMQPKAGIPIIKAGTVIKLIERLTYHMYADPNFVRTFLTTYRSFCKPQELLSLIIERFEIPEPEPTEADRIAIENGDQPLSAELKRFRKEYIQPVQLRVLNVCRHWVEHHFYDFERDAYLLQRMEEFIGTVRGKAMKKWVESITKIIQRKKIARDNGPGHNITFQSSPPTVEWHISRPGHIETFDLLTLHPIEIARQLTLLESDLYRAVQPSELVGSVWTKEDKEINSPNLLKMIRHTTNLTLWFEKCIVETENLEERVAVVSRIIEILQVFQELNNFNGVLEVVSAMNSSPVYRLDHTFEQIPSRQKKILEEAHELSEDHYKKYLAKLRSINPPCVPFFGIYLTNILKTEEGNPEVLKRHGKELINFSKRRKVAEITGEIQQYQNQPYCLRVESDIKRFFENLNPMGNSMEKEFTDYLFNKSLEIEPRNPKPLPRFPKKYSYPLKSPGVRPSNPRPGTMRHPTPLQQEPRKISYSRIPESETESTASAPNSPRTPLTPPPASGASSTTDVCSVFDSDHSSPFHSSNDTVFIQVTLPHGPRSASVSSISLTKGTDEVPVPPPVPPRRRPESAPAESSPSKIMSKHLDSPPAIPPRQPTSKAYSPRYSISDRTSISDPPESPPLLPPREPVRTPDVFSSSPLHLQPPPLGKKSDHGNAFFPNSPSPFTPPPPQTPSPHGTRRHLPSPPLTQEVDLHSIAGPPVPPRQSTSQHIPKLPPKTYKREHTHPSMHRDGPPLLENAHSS

**Q.** Which IC50 (SOS1) does the source give for `C[C@@H](NC(=O)c1ccc(=O)n(-c2cc(CO)ccc2F)n1)c1cc(N)cc(C(F)(F)F)c1` [Example 159, N-[(1R)-1-[3-amino-5-(trifluoromethyl)pheny 1]ethyl]-1-[2-fluoro-5-(hydroxymethyl)phenyl] -6-oxo-pyridazine-3-carboxamide] here?
**A.** The IC50 was less than 1000 nM.

**Q.** What about the IC50 (KRAS^G12C::SOS1) of the same compound?
**A.** The IC50 was less than 1000 nM.

**Q.** `C[C@@H](NC(=O)c1ccc(=O)n(-c2cccc3[nH]ccc23)n1)c1cc(N)cc(C(F)(F)F)c1` [Example 160, N-[(1R)-1-[3-amino-5-(trifluoromethyl)phenyl]ethyl]-1-(1H-indol-4-yl)-6-oxo-pyridazine-3-carboxamide] was tested. Which IC50 (SOS1) did it give?
**A.** The IC50 was 1000 to 10000 nM.

**Q.** What about the IC50 (KRAS^G12C::SOS1) of the same compound?
**A.** Its IC50 is less than 1000 nM.

**Q.** Which results are given for `C[C@@H](NC(=O)c1ccc(=O)n(-c2cncc(-c3cnnn3C)c2)n1)c1cccc(C(F)F)c1F` [Example B02, N-[(1R)-1-[3-(difluoromethyl)-2-fluoro-phenyl]ethyl]-1-[5-(3-methyltriazol-4-yl)-3-pyridyl]-6-oxo-pyridazine-3-carboxamide]?
**A.** IC50 (SOS1): < 1000 nM; IC50 (KRAS^G12C::SOS1): < 1000 nM

**Q.** What does the source list for `Cc1cc(C(=O)N[C@H](C)c2cc(N)cc(C(F)(F)F)c2F)nn(-c2cncc(-c3cnnn3C)c2)c1=O` [Example B03, N-[(1R)-1-[5-amino-2-fluoro-3-(trifluoromethyl)phenyl]ethyl]-5-methyl-1-[5-(3-methyltriazol-4-yl)-3-pyridyl]-6-oxo-pyridazine-3-carboxamide]?
**A.** IC50 (SOS1): < 1000 nM; IC50 (KRAS^G12C::SOS1): < 1000 nM

**Q.** How did the IC50 (SOS1) turn out when `CCn1nncc1-c1cccc(-n2cc(C(=O)N[C@H](C)c3cccc(C(F)(F)F)c3F)ccc2=O)c1` [Example B04, N-[(R)-1-[2-fluoro-3-(trifluoromethyl)phenyl]ethyl]-1-[m-(1-ethyl-1H-1,2,3-triazol-5-yl)phenyl]-6-oxo-1,6-dihydronicotinamide] was run?
**A.** Its IC50 is less than 1000 nM.

**Q.** What about the IC50 (KRAS^G12C::SOS1) of the same compound?
**A.** The IC50 was less than 1000 nM.

**Q.** With `Cc1c([C@@H](C)NC(=O)c2ccc(=O)n(-c3cncc(-c4ccnn4C)c3)n2)cc(N)cc1C(F)(F)F` [Example B05, N-[(1R)-1-[5-amino-2-methyl-3-(trifluoromethyl)phenyl]ethyl]-1-[5-(2-methylpyrazol-3-yl)-3-pyridyl]-6-oxo-pyridazine-3-carboxamide] as the compound, how does the IC50 (SOS1) read?
**A.** The IC50 was less than 1000 nM.

**Q.** And the IC50 (KRAS^G12C::SOS1)?
**A.** The IC50 was less than 1000 nM.

**Q.** With `C[C@@H](NC(=O)c1ccc(=O)n(-c2ccc(F)c(-c3cnnn3C)c2)n1)c1cccc(C(F)(F)F)c1F` [Example B06, N-[(R)-1-[2-fluoro-3-(trifluoromethyl)phenyl]ethyl]-1-[4-fluoro-3-(1-methyl-1H-1,2,3-triazol-5-yl)phenyl]-6-oxo-1,6-dihydro-3-pyridazinecarboxamide] as the compound, how does the IC50 (SOS1) read?
**A.** Its IC50 is less than 1000 nM.

**Q.** And the IC50 (KRAS^G12C::SOS1)?
**A.** The IC50 was less than 1000 nM.

**Q.** For `Cc1cc(C(=O)N[C@H](C)c2cc(N)cc(C(F)F)c2)nn(-c2cncc(-c3cnnn3C)c2)c1=O` [Example B07, N-[(1R)-1-[3-amino-5-(difluoromethyl)phenyl]ethyl]-5-methyl-1-[5-(3-methyltriazol-4-yl)-3-pyridyl]-6-oxo-pyridizine-3-carboxamide], which IC50 (SOS1) is on record?
**A.** The IC50 was less than 1000 nM.

**Q.** What about the IC50 (KRAS^G12C::SOS1) of the same compound?
**A.** Its IC50 is less than 1000 nM.

**Q.** For `C[C@@H](NC(=O)c1ccc(=O)n(-c2cncc(-c3cnnn3C)c2)c1)c1cccc(C(F)(F)F)c1F` [Example B08, N-[(1R)-1-[2-fluoro-3-(trifluoromethyl)phenyl]ethyl]-1-[5-(3-methyltriazol-4-yl)-3-pyridyl]-6-oxo-pyridine-3-carboxamide], which IC50 (SOS1) is on record?
**A.** The IC50 was less than 1000 nM.

**Q.** And the IC50 (KRAS^G12C::SOS1)?
**A.** The IC50 was less than 1000 nM.

**Q.** Which results are given for `C[C@@H](NC(=O)c1ccc(=O)n(-c2cncc(-c3cnnn3C)c2)n1)c1cccc(C(F)(F)CF)c1F` [Example B09, (R)-N-(1-(2-fluoro-3-(1,1,2-trifluoroethyl)phenyl)ethyl)-1-(5-(1-methyl-1H-1,2,3-triazol-5-yl)pyridin-3-yl)-6-oxo-1,6-dihydropyridazine-3-carboxamide]?
**A.** IC50 (SOS1): < 1000 nM; IC50 (KRAS^G12C::SOS1): < 1000 nM

**Q.** Which results are given for `Cc1cc(C(=O)N[C@H](C)c2cccc(C(F)(F)F)c2F)cn(-c2cncc(-c3cnnn3C)c2)c1=O` [Example B10, (R)-N-(1-(2-fluoro-3-(trifluoromethyl)phenyl)ethyl)-3-methyl-5'-(1-methyl-1H-1,2,3-triazol-5-yl)-2-oxo-2H-[1,3'-bipyridine]-5-carboxamide]?
**A.** IC50 (SOS1): < 1000 nM; IC50 (KRAS^G12C::SOS1): < 1000 nM

**Q.** With `[2H]C([2H])([2H])n1nncc1-c1cncc(-n2nc(C(=O)N[C@H](C)c3cccc(C(F)(F)F)c3F)ccc2=O)c1` [Example B11, N-[(1R)-1-[2-fluoro-3-(trifluoromethyl)phenyl]ethyl]-6-oxo-1-[5-[3-(trideuteriomethyl)triazol-4-yl]-3-pyridyl]pyridazine-3-carboxamide] as the compound, how does the IC50 (SOS1) read?
**A.** Its IC50 is less than 1000 nM.

**Q.** And the IC50 (KRAS^G12C::SOS1)?
**A.** Its IC50 is less than 1000 nM.

**Q.** Which results are given for “N-[(1R)-1-[3-amino-5-(trifluoromethyl)phenyl]ethyl]-6-oxo-1-[4-(trifluoromethoxy)phenyl]pyridazine-3-carboxamide [Example 154]”?
**A.** IC50 (SOS1): 1000 to 10000 nM; IC50 (KRAS^G12C::SOS1; read-out: KRAS ^G12C::SOS1 PPI assay (IC50 range, Grade), maximum concentration 3 µM, 8 concentrations, three replicates): < 1000 nM
